Source: US5409933A, “Quinoline derivatives and processes for preparing the same” (priority 1993, dated 1995)
Where a name gives a salt, the structure may show the parent alone. Read-outs that look alike come from different tables or passages of the source.

Legend:
Assay in all cases: In Vitro Anti-Bacterial Activity Test (MIC, agar dilution)
Assay type in all cases: cell-based
[1] = system: Enterobacter cloacae 1321E
Procedure: (§1) The above in vitro antibacterial activity test was carried out in accordance with the agar culture medium dilution method (Hoechst 345) by using Muller-Hinton agar medium to determine the minimum inhibitory concentration (MIC).
(§2) The strains having 10^7 C.F.U./ml were inoculated on the culture medium, and the growth of the strains was observed after incubating them at 37° C. for 18 hours, in which ciprofloxacin was used as a control antibacterial agent. In this test, twenty typical strains were used.

Enterobacter cloacae P99 = conditions: Enterobacter cloacae, P99, 18 h
Procedure: as §1, §2

Escherichia coli 078 = system: Escherichia coli 078
Procedure: as §1, §2

Escherichia coli 1507E = conditions: Escherichia coli, 1507E, 18 h, Muller-Hinton agar, 37° C.
Procedure: as §1, §2

Escherichia coli DC0 = conditions: Muller-Hinton agar, 37° C., 18 hours, read-out: MIC
Procedure: as §1, §2

Escherichia coli DC2 = conditions: Escherichia coli, DC2, 18 h
Procedure: as §1, §2

Escherichia coli TEM = conditions: Escherichia coli, 18 h, Muller-Hinton agar, 37° C.
Procedure: as §1, §2

[2] = system: Klebsiella aerogenes 1522E; conditions: Klebsiella aerogenes, 1522E, 18 h
Procedure: as §1, §2

Klebsiella oxytoca 1082E = conditions: Klebsiella oxytoca 1082E; Muller-Hinton agar, 37° C., 18 hours; read-out: MIC
Procedure: as §1, §2

[3] = system: Pseudomonas aeruginosa 1592E; conditions: Muller-Hinton agar, 37° C., 18 hours, read-out: MIC
Procedure: as §1, §2

[4] = system: Pseudomonas aeruginosa 1771M; conditions: Pseudomonas aeruginosa, 1771M, 18 h, Muller-Hinton agar, 37° C.
Procedure: as §1, §2

[5] = system: Pseudomonas aeruginosa 1771; conditions: Pseudomonas aeruginosa 1771; Muller-Hinton agar, 37° C., 18 hours; read-out: MIC
Procedure: as §1, §2

[6] = system: Pseudomonas aeruginosa 9027; conditions: Muller-Hinton agar, 37° C., 18 hours, read-out: MIC
Procedure: as §1, §2

Salmonella typhimurium = conditions: Salmonella enterica; Salmonella typhimurium; Muller-Hinton agar, 37° C., 18 hours; read-out: MIC
Procedure: as §1, §2

[7] = system: Staphylococcus aureus 285; conditions: Staphylococcus aureus, 285, 18 h
Procedure: as §1, §2

[8] = system: Staphylococcus aureus 503; conditions: Staphylococcus aureus 503; Muller-Hinton agar, 37° C., 18 hours; read-out: MIC
Procedure: as §1, §2

[9] = system: Staphylococcus aureus SG511; conditions: Staphylococcus aureus SG511; Muller-Hinton agar, 37° C., 18 hours; read-out: MIC
Procedure: as §1, §2

[10] = system: Streptococcus faecium MD8b; conditions: Enterococcus faecium, Muller-Hinton agar, 37° C., 18 hours, read-out: MIC
Procedure: as §1, §2

[11] = system: Streptococcus pyogenes 308A; conditions: Muller-Hinton agar, 37° C., 18 hours, read-out: MIC
Procedure: as §1, §2

[12] = system: Streptococcus pyogenes 77A
Procedure: as §1, §2

[13] = Enterobacter cloacae 1321E, Muller-Hinton agar, 37° C., 18 hours, read-out: MIC
[14] = Klebsiella aerogenes 1522E, Muller-Hinton agar, 37° C., 18 hours, read-out: MIC
[15] = Staphylococcus aureus 285, Muller-Hinton agar, 37° C., 18 hours, read-out: MIC
[16] = Streptococcus pyogenes 77A, Muller-Hinton agar, 37° C., 18 hours, read-out: MIC
[17] = Escherichia coli 078, Muller-Hinton agar, 37° C., 18 hours, read-out: MIC
[18] = Streptococcus pyogenes, 77A, 18 h

| SMILES | MIC [1, 13] | MIC (Enterobacter cloacae P99) | MIC (Escherichia coli 078; Escherichia coli, 078, 18 h) | MIC (Escherichia coli 1507E) | MIC (Escherichia coli DC0) | MIC (Escherichia coli DC2) | MIC (Escherichia coli TEM) | MIC [2, 14] | MIC (Klebsiella oxytoca 1082E) | MIC [3] | MIC [4] | MIC [5] | MIC [6] | MIC (Salmonella typhimurium) | MIC [7, 15] | MIC [8] | MIC [9] | MIC [10] | MIC [11] | MIC [12, 16] | other results |
| --- | --- | --- | --- | --- | --- | --- | --- | --- | --- | --- | --- | --- | --- | --- | --- | --- | --- | --- | --- | --- | --- |
| COc1c(N2CCC(N)C2)c(F)cc2c(=O)c(C(=O)C[N+](=O)[O-])cn(C3CC3)c12 (stereo not drawn) [Example 49, 1-cyclopropyl-6-fluoro-8-methoxy-7-(3-aminopyrrolidin-1-yl)-3-(2-nitroacetyl)-1,4-dihydro-4-oxoquinoline hydrochloride] | 0.025 µg/mL | 0.049 µg/mL | 0.049 µg/mL | 0.098 µg/mL | 0.391 µg/mL | 0.098 µg/mL | 0.049 µg/mL | 0.098 µg/mL | 0.013 µg/mL | 1.56 µg/mL | 0.781 µg/mL | 3.12 µg/mL | 3.12 µg/mL | 0.049 µg/mL | 0.098 µg/mL | 0.098 µg/mL | 0.098 µg/mL | 0.195 µg/mL | 0.391 µg/mL | 0.098 µg/mL | – |
| CN[C@@H]1CCN(c2c(F)cc3c(=O)c(C(=O)C[N+](=O)[O-])cn(C4CC4)c3c2Cl)C1 [Example 61, 1-cyclopropyl-6-fluoro-8-chloro-7-(3-3R-methylaminopyrrolidin-1-yl)-3-(2-nitroacetyl)-1,4-dihydro-4-oxoquinoline hydrochloride] | – | 0.007 µg/mL | – | 0.007 µg/mL | 0.049 µg/mL | 0.013 µg/mL | 0.007 µg/mL | 0.013 µg/mL | 0.004 µg/mL | 0.195 µg/mL | 0.098 µg/mL | 0.195 µg/mL | 0.195 µg/mL | 0.004 µg/mL | 0.025 µg/mL | 0.025 µg/mL | 0.013 µg/mL | 0.098 µg/mL | 0.391 µg/mL | 0.098 µg/mL | MIC ([1]; Enterobacter cloacae, 1321E, 18 h): 0.007 µg/mL; MIC (Escherichia coli 078; [17]): < 0.002 µg/mL |
| N#CCC(=O)c1cn(C2CC2)c2c(Cl)c(N3CC4=C(CNC4)C3)c(F)cc2c1=O [Example 44, 1-cyclopropyl-6-fluoro-8-chloro-7-(3,7-diazabicyclo[3.3.0]oct-1,5-en-3-yl)-3-(2-cyanoacetyl)-1,4-dihydro-4-oxoquinoline hydrochloride] | 0.098 µg/mL | 0.195 µg/mL | 0.195 µg/mL | 0.781 µg/mL | 3.12 µg/mL | 1.56 µg/mL | 0.391 µg/mL | – | 0.195 µg/mL | 6.25 µg/mL | 3.12 µg/mL | 12.5 µg/mL | 12.5 µg/mL | 0.195 µg/mL | 6.25 µg/mL | 6.25 µg/mL | 6.25 µg/mL | 25 µg/mL | 25 µg/mL | 25 µg/mL | MIC [2]: 0.391 µg/mL |
| CCOC(=O)CC(=O)c1cn(C2CC2)c2c(Cl)c(N3CC[C@@H](N)C3)c(F)cc2c1=O [Example 26, 1-cyclopropyl-6-fluoro-8-chloro-7-(3-3R-aminopyrrolidin-1-yl)-3-(2-ethoxycarbonylacetyl)-1,4-dihydro-4-oxoquinoline hydrochloride] | 0.004 µg/mL | 0.013 µg/mL | – | 0.025 µg/mL | 0.195 µg/mL | 0.098 µg/mL | 0.013 µg/mL | 0.049 µg/mL | < 0.002 µg/mL | 0.781 µg/mL | 0.098 µg/mL | 0.781 µg/mL | 0.781 µg/mL | 0.007 µg/mL | 0.098 µg/mL | 0.098 µg/mL | 0.098 µg/mL | 0.781 µg/mL | 1.56 µg/mL | – | MIC (Escherichia coli 078; [17]): 0.004 µg/mL; MIC [12, 18]: 0.781 µg/mL |
| CN[C@H]1CCN(c2c(F)cc3c(=O)c(C(=O)C[N+](=O)[O-])cn(C4CC4)c3c2OC)C1 [Example 65, 1-cyclopropyl-6-fluoro-8-methoxy-7-(3-3S-methylaminopyrrolidin-1-yl)-3-(2-nitroacetyl)-1,4-dihydro-4-oxoquinoline hydrochloride] | 0.013 µg/mL | 0.013 µg/mL | 0.049 µg/mL | 0.195 µg/mL | 0.781 µg/mL | 0.195 µg/mL | 0.049 µg/mL | 0.049 µg/mL | 0.049 µg/mL | 1.56 µg/mL | 1.56 µg/mL | 1.56 µg/mL | 1.56 µg/mL | 0.781 µg/mL | 0.049 µg/mL | 0.098 µg/mL | 0.049 µg/mL | 0.781 µg/mL | 0.781 µg/mL | – | MIC [12, 18]: 0.781 µg/mL |
| CCOC(=O)CC(=O)c1cn(C2CC2)c2c(Cl)c(N3CC[C@H](N)C3)c(F)cc2c1=O [Example 27, 1-cyclopropyl-6-fluoro-8-chloro-7-(3-3S-aminopyrrolidin-1-yl)-3-(2-ethoxycarbonylacetyl)-1,4-dihydro-4-oxoquinoline hydrochloride] | < 0.002 µg/mL | 0.004 µg/mL | – | 0.013 µg/mL | 0.098 µg/mL | 0.013 µg/mL | < 0.002 µg/mL | 0.013 µg/mL | < 0.002 µg/mL | 0.195 µg/mL | 0.098 µg/mL | 0.195 µg/mL | 0.391 µg/mL | < 0.002 µg/mL | 0.049 µg/mL | 0.049 µg/mL | 0.098 µg/mL | 0.391 µg/mL | 0.781 µg/mL | 0.391 µg/mL | MIC (Escherichia coli 078; [17]): 0.004 µg/mL |
| CCOC(=O)C(C(=O)OCC)C(=O)c1cn(C2CC2)c2c(F)c(N3CCC(N)C3)c(F)cc2c1=O (stereo not drawn) [Example 20, 1-cyclopropyl-6,8-difluoro-7-(3-aminopyrrolidin-1-yl)-3-(2,2-diethoxycarbonylacetyl)-1,4-dihydro-4-oxoquinoline hydrochloride] | < 0.002 µg/mL | < 0.002 µg/mL | – | 0.007 µg/mL | 0.098 µg/mL | 0.013 µg/mL | < 0.002 µg/mL | 0.025 µg/mL | < 0.002 µg/mL | 0.195 µg/mL | 0.098 µg/mL | 0.195 µg/mL | 0.391 µg/mL | < 0.002 µg/mL | 0.013 µg/mL | 0.025 µg/mL | 0.013 µg/mL | 0.098 µg/mL | 0.391 µg/mL | 0.098 µg/mL | MIC (Escherichia coli 078; [17]): < 0.002 µg/mL |
| CCOC(=O)C(C(=O)OCC)C(=O)c1cn(C2CC2)c2c(OC)c(N3CC[C@@H](NC)C3)c(F)cc2c1=O [Example 58, 1-cyclopropyl-6-fluoro-8-methoxy-7-(3-3R-methylaminopyrrolidin-1-yl)-3-(2,2-diethoxycarbonylacetyl)-1,4-dihydro-4-oxoquinoline hydrochloride] | 0.098 µg/mL | 0.098 µg/mL | 0.098 µg/mL | 0.391 µg/mL | 1.56 µg/mL | 0.195 µg/mL | 0.098 µg/mL | 0.195 µg/mL | 0.049 µg/mL | 1.56 µg/mL | 0.781 µg/mL | 1.56 µg/mL | 1.56 µg/mL | 0.195 µg/mL | 0.195 µg/mL | 0.195 µg/mL | 0.195 µg/mL | 1.56 µg/mL | 1.56 µg/mL | 1.56 µg/mL | – |
| CS(=O)(=O)CC(=O)c1cn(C2CC2)c2c(Cl)c(N3CC4=C(CNC4)C3)c(F)cc2c1=O [Example 47, 1-cyclopropyl-6-fluoro-8-chloro-7-(3,7-diazabicyclo[3.3.0]oct-1,5-en-3-yl)-3-(2-methanesulfonylacetyl)-1,4-dihydro-4-oxoquinoline hydrochloride] | 0.049 µg/mL | 0.049 µg/mL | 0.195 µg/mL | 0.391 µg/mL | 0.781 µg/mL | 0.391 µg/mL | 0.195 µg/mL | 0.049 µg/mL | 0.098 µg/mL | 0.781 µg/mL | 0.195 µg/mL | 0.781 µg/mL | 1.56 µg/mL | 0.098 µg/mL | – | 0.391 µg/mL | 0.391 µg/mL | 0.781 µg/mL | 1.56 µg/mL | – | MIC [7]: 0.195 µg/mL; MIC [12, 18]: 0.781 µg/mL |
